From patent publication EP2562253B1 (priority 2010, dated 2011)
Like-named read-outs stand apart in the source and are kept apart here.

Assays:
wild-type enzyme RBS [1] = format: biochemical, Burkholderia sp. YT strain
wild-type enzyme RBS [2] = test: Reaction inhibition of wild-type enzyme RBS by various compounds; format: biochemical, Burkholderia sp. YT strain; conditions: 3-quinuclidinone 5 mM, NADPH 0.25 mM, pH 6.5, 30°C
Experimental: A cell-free extract of the wild-type enzyme was obtained as in Reference Example 4. The 3-quinuclidinone reduction activity of this cell-free extract was measured, and given as activity without inhibitor. The cell-free extract was added to 100 mM phosphate buffer (pH 6.5) containing the compounds shown in Table 2, 3-quinuclidinone (5 mM) and the coenzyme NADPH (0.25 mM), and reacted for 1 minute at 30°C, and reduction activity of 3-quinuclidinone was calculated from the rate of decrease in absorbancy at 340 nm.
Relative activity was calculated by the following formula, and used as an indicator of reaction inhibition by the various compounds. Relative activity (%) = [enzyme activity in presence of compound]/[enzyme activity without inhibitor] × 100 [formula]

Compound	Remaining activity (%) (wild-type enzyme RBS [1]; pH 6.5)	Remaining activity (%) (wild-type enzyme RBS [1]; pH 6.5, 310000 µM)	Remaining activity (%) (wild-type enzyme RBS [1]; pH 6.5, 620000 µM)	Relative activity (%) (wild-type enzyme RBS [2]; additive 0.31 M, 310000 µM)	Relative activity (%) (wild-type enzyme RBS [2]; additive 0.62 M, 620000 µM)
O=C(CCl)c1cccc(Cl)c1 [m-chlorophenacyl chloride]	0	–	–	–	–
OC(CCCl)c1cccs1 (stereo not drawn) [3-Chloro-1-(2-thienyl)propan-1-ol]	0	–	–	–	–
Potassium chloride	–	46	26	14	5
CC(=O)c1cccs1 [Acetylthiophene]	72	–	–	–	–
Sodium sulfate	–	76	79	31	17
O=C(CCCl)c1cccs1 [3-Chloro-1-(2-thienyl)propan-1-one]	0	–	–	–	–
CC(=O)c1ccccc1 [Acetophenone]	81	–	–	–	–
CC(C)=O [Acetone]	80	–	–	–	–
Sodium chloride	–	46	24	15	3
O=C(CCl)c1ccccc1 [Phenacyl chloride]	0	–	–	–	–
Cl.O=C1CN2CCC1CC2 [3-Quinuclidinone hydrochloride]	–	73	44	–	–
